From the supplement of paper PMC12463676, “Small-molecule dissolution of stress granules by redox modulation benefits ALS models” (Nature Chemical Biology, 2025)

Columns and labels:
lipoamide = compound: NC(=O)CCCCC1CCSS1 [lipoamide]; assay: thermal stability z-score vs DMSO; higher = more thermally stabilized by treatment; conditions: HeLa, lipoamide concentration 100 µM
Experimental: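 Cellular thermal proteome profiling in HeLa cells. Cells were treated with 100 µM lipoamide for 1 h, with or without 1 mM arsenate for a further 1 h, then heated to ten temperatures (37-66.3 °C), and soluble protein was quantified by TMT mass spectrometry relative to 0.1% DMSO controls. The thermal stability score (sum of log2 fold changes minus the abundance score) was transformed to a z-score; mean of n = 3 experiments.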

potassium arsenate = compound: O=[As]([O-])(O)O.[K+] [potassium arsenate]; assay: as above; conditions: HeLa; arsenate concentration 1 mM
Experimental: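 Cellular thermal proteome profiling in HeLa cells treated with 1 mM arsenate for 1 h (DMSO pretreatment), heated to ten temperatures (37-66.3 °C). Soluble protein was quantified by TMT mass spectrometry relative to DMSO controls; the thermal stability score was transformed to a z-score; mean of n = 3 experiments.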

[1] = arsenate co-treatment: 1 mM arsenate 1 h
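Further: each temperature applied for 3 min, abundance score taken as mean log2 fold change at the two lowest temperatures, z-score obtained by mean subtraction and division by SD.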

UniProt Q96EN8, sequence (Q96EN8 whole entry): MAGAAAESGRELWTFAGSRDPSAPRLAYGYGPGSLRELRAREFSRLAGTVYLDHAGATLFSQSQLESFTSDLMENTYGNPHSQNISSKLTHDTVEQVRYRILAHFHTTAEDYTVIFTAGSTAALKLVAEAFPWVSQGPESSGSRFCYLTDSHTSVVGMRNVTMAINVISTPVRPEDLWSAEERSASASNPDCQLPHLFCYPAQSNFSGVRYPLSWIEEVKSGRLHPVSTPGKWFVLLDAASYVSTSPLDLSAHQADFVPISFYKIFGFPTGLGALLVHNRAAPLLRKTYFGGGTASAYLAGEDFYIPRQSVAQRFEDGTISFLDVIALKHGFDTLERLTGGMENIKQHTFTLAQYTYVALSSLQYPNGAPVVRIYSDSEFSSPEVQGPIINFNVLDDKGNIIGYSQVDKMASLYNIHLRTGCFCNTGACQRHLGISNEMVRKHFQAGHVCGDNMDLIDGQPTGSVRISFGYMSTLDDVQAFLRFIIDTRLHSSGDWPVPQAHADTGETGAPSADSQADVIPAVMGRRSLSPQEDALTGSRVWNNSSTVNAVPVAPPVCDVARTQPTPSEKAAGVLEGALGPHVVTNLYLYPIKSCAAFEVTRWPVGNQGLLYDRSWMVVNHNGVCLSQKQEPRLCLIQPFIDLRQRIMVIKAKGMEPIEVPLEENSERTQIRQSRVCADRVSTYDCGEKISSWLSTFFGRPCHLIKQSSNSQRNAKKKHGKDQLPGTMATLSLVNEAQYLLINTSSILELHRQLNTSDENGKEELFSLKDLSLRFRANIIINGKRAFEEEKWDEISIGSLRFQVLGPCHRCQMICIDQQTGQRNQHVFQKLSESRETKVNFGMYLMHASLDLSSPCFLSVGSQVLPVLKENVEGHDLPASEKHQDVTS
UniProt Q14149, sequence (Q14149 whole entry): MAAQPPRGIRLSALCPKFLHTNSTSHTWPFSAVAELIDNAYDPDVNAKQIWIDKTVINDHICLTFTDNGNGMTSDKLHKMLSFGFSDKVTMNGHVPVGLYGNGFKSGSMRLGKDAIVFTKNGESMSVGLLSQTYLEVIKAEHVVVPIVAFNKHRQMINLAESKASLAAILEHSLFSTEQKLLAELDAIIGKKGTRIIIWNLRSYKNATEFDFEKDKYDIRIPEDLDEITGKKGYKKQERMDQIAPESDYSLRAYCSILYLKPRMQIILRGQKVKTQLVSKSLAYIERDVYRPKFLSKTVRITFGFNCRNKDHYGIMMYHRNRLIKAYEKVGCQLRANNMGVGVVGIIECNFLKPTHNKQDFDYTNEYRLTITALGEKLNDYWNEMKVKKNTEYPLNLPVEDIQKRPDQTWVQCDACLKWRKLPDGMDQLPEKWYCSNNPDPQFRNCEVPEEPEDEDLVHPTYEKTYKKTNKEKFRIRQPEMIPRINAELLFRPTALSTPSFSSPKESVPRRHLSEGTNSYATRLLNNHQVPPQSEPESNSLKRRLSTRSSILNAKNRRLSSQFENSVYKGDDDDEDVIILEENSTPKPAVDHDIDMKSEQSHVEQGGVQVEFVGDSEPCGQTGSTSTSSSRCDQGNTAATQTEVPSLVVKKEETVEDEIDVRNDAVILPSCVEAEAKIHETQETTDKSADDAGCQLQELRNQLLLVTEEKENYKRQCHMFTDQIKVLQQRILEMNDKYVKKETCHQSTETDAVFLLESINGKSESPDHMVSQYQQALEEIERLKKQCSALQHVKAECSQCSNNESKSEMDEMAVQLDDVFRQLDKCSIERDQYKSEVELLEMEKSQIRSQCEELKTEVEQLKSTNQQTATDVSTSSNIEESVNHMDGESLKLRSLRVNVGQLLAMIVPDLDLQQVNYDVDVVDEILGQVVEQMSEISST
UniProt Q9H000, sequence (Q9H000 whole entry): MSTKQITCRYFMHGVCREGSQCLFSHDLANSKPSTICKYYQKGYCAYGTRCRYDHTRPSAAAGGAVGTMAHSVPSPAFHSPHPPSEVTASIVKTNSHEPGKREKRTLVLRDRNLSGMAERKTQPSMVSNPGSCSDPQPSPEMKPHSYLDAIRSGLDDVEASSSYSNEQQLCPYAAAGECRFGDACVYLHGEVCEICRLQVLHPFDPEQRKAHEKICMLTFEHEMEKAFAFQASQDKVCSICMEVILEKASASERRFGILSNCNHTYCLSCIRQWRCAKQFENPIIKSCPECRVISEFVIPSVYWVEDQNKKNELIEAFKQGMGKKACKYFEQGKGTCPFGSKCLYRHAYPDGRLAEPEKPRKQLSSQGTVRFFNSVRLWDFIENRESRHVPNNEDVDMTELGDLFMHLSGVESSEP
UniProt O95822, sequence (O95822 whole entry): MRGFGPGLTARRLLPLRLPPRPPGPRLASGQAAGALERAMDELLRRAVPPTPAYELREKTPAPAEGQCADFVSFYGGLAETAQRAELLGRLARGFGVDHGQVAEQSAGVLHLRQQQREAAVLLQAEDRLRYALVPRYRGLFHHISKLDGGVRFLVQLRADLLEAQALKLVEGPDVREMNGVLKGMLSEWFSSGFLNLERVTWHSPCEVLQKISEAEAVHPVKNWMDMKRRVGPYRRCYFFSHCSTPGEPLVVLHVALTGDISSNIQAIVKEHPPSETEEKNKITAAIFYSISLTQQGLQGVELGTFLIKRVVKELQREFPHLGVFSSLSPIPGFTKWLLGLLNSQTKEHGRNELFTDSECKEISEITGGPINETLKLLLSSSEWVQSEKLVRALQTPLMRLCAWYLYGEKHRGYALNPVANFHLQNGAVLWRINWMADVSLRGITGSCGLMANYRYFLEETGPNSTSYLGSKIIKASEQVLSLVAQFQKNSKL
UniProt Q9BUB5, sequence (Q9BUB5 whole entry, looked up): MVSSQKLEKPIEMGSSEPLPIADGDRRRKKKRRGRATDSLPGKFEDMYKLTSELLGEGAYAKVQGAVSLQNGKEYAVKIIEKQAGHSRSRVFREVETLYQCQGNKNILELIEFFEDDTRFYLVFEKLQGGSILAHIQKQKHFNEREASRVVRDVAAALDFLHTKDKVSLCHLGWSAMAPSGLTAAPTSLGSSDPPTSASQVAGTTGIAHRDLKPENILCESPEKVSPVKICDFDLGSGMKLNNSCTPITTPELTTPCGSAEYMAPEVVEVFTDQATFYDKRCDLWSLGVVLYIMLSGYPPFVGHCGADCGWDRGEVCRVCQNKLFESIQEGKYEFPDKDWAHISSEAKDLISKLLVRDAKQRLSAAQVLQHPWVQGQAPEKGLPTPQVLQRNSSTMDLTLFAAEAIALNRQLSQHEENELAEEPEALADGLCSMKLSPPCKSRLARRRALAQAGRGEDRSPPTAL
UniProt P29372, sequence (P29372 whole entry): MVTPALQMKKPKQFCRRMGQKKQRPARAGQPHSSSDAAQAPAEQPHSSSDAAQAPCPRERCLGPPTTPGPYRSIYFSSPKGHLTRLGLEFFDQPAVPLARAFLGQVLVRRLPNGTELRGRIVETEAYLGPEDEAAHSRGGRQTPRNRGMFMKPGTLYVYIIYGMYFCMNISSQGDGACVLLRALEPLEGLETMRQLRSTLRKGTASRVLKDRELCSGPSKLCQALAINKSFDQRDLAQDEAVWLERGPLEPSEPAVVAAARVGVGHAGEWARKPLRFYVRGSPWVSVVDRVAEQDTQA
UniProt Q9UH92, sequence (Q9UH92 whole entry): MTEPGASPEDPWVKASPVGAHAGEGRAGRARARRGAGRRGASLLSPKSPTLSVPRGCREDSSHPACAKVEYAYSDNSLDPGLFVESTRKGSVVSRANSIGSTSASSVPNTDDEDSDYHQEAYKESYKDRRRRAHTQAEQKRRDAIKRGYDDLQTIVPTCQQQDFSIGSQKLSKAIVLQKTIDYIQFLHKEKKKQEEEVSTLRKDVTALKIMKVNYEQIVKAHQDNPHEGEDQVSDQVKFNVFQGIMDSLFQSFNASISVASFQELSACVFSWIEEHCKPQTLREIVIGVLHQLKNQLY
UniProt Q70IA6, sequence (Q70IA6 whole entry): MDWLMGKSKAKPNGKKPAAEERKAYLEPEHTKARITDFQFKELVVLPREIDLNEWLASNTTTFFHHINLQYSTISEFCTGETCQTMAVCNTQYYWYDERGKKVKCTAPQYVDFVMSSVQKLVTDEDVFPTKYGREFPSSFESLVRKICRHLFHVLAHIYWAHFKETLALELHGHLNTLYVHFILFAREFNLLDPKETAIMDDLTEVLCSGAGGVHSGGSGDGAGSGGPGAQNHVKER
UniProt Q9NXC5, sequence (Q9NXC5 whole entry): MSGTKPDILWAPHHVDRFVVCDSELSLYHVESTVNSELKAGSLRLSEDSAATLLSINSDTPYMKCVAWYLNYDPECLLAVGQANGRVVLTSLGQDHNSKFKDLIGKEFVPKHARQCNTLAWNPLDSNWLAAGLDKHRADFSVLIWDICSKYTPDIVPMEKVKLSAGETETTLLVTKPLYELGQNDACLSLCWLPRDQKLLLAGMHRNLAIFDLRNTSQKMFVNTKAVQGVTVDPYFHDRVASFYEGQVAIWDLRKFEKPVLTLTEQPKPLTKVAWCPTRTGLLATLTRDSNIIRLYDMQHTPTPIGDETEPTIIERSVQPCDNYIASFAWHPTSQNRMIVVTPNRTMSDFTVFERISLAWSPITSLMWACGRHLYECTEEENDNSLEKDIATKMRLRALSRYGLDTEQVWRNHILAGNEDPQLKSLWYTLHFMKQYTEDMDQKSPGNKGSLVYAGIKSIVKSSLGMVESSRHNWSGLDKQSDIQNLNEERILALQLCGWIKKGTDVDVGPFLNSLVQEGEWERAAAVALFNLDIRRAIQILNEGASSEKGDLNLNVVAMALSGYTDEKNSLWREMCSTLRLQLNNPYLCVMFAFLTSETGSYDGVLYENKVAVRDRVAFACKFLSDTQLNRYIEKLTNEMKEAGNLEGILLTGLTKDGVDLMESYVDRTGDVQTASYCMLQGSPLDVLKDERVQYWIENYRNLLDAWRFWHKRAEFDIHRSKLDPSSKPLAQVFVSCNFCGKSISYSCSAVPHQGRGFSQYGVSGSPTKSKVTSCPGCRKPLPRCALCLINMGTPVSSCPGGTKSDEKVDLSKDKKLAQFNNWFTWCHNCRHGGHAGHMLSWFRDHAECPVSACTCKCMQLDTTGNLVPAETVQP
UniProt P56378, sequence (P56378 whole entry): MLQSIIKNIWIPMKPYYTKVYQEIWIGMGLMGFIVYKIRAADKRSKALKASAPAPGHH

For MIF4GD (UniProt A9UHW6), the thermal stability z-score (lipoamide; [1]) was 0.658, the thermal stability z-score (lipoamide; arsenate co-treatment: none) was 0.0749 and the thermal stability z-score (potassium arsenate) was -0.165.

Work on MIF (UniProt P14174) yielded a thermal stability z-score (lipoamide; [1]) of 0.245, a thermal stability z-score (lipoamide; arsenate co-treatment: none) of -0.0795 and a thermal stability z-score (potassium arsenate) of -0.0642.

MINA (UniProt Q8IUF8) showed a thermal stability z-score (lipoamide; [1]) of 0.0507, a thermal stability z-score (lipoamide; arsenate co-treatment: none) of 0.508 and a thermal stability z-score (potassium arsenate) of -1.34.

MINK1 (UniProt Q8N4C8) gave a thermal stability z-score (lipoamide; [1]) of -0.526, a thermal stability z-score (lipoamide; arsenate co-treatment: none) of 0.0558 and a thermal stability z-score (potassium arsenate) of -0.0337.

MINPP1 (UniProt Q9UNW1) gave a thermal stability z-score (lipoamide; [1]) of -3.92, a thermal stability z-score (lipoamide; arsenate co-treatment: none) of -4.05 and a thermal stability z-score (potassium arsenate) of -0.105.

Target MIOS (UniProt Q9NXC5) has a thermal stability z-score (lipoamide; [1]) of 0.0112, a thermal stability z-score (lipoamide; arsenate co-treatment: none) of 0.085 and a thermal stability z-score (potassium arsenate) of -0.469.

For MIPEP (UniProt Q99797), the thermal stability z-score (lipoamide; [1]) was -0.162, the thermal stability z-score (lipoamide; arsenate co-treatment: none) was 0.0258 and the thermal stability z-score (potassium arsenate) was -0.271.

Work on MIS12 (UniProt Q9H081) yielded a thermal stability z-score (lipoamide; [1]) of -0.0248, a thermal stability z-score (lipoamide; arsenate co-treatment: none) of -0.061 and a thermal stability z-score (potassium arsenate) of 0.00203.

MIS18A (UniProt Q9NYP9) was tested, and the thermal stability z-score (lipoamide; [1]) was -0.127, the thermal stability z-score (lipoamide; arsenate co-treatment: none) was 0.246 and the thermal stability z-score (potassium arsenate) was 0.683.

Work on MISP (UniProt Q8IVT2) yielded a thermal stability z-score (lipoamide; [1]) of 0.196, a thermal stability z-score (lipoamide; arsenate co-treatment: none) of 0.386 and a thermal stability z-score (potassium arsenate) of -0.461.

In the case of MITD1 (UniProt Q8WV92), the thermal stability z-score (lipoamide; [1]) was 0.39, the thermal stability z-score (lipoamide; arsenate co-treatment: none) was 0.109 and the thermal stability z-score (potassium arsenate) was 0.168.

MITF (UniProt O75030) showed a thermal stability z-score (lipoamide; [1]) of -0.413, a thermal stability z-score (lipoamide; arsenate co-treatment: none) of -0.377 and a thermal stability z-score (potassium arsenate) of 0.297.

MKI67 (UniProt P46013) was tested, and the thermal stability z-score (lipoamide; [1]) was 1.7, the thermal stability z-score (lipoamide; arsenate co-treatment: none) was 1.37 and the thermal stability z-score (potassium arsenate) was 0.155.

With MKL2 (UniProt Q9ULH7) the thermal stability z-score (lipoamide; [1]) was -0.208, the thermal stability z-score (lipoamide; arsenate co-treatment: none) was -0.342 and the thermal stability z-score (potassium arsenate) was 0.418.

In the case of MKLN1 (UniProt Q9UL63), the thermal stability z-score (lipoamide; [1]) was -0.128, the thermal stability z-score (lipoamide; arsenate co-treatment: none) was -0.114 and the thermal stability z-score (potassium arsenate) was -0.403.

MKNK1 (UniProt Q9BUB5) was tested, and the thermal stability z-score (lipoamide; [1]) was -0.146, the thermal stability z-score (lipoamide; arsenate co-treatment: none) was -0.928 and the thermal stability z-score (potassium arsenate) was -1.53.

For MKNK2 (UniProt Q9HBH9), the thermal stability z-score (lipoamide; [1]) was -0.569, the thermal stability z-score (lipoamide; arsenate co-treatment: none) was 0.232 and the thermal stability z-score (potassium arsenate) was 0.192.

In the case of MKRN1 (UniProt Q9UHC7), the thermal stability z-score (lipoamide; [1]) was -0.0831, the thermal stability z-score (lipoamide; arsenate co-treatment: none) was -0.0834 and the thermal stability z-score (potassium arsenate) was -0.138.

Target MKRN2 (UniProt Q9H000) has a thermal stability z-score (lipoamide; [1]) of 0.303, a thermal stability z-score (lipoamide; arsenate co-treatment: none) of 0.829 and a thermal stability z-score (potassium arsenate) of -0.0571.

With MLEC (UniProt Q14165) the thermal stability z-score (lipoamide; [1]) was -3.66, the thermal stability z-score (lipoamide; arsenate co-treatment: none) was -2.94 and the thermal stability z-score (potassium arsenate) was 0.385.

MLH1 (UniProt P40692) was tested, and the thermal stability z-score (lipoamide; [1]) was -0.0694, the thermal stability z-score (lipoamide; arsenate co-treatment: none) was 0.372 and the thermal stability z-score (potassium arsenate) was 1.04.

For MLKL (UniProt Q8NB16), the thermal stability z-score (lipoamide; [1]) was 0.561, the thermal stability z-score (lipoamide; arsenate co-treatment: none) was 0.379 and the thermal stability z-score (potassium arsenate) was -1.45.

MLLT1 (UniProt Q03111) showed a thermal stability z-score (lipoamide; [1]) of -0.182, a thermal stability z-score (lipoamide; arsenate co-treatment: none) of -0.111 and a thermal stability z-score (potassium arsenate) of -0.0158.

Work on MLLT4 (UniProt P55196) yielded a thermal stability z-score (lipoamide; [1]) of -0.572, a thermal stability z-score (lipoamide; arsenate co-treatment: none) of -0.126 and a thermal stability z-score (potassium arsenate) of -0.113.

MLST8 (UniProt Q9BVC4) was tested, and the thermal stability z-score (lipoamide; [1]) was -0.537, the thermal stability z-score (lipoamide; arsenate co-treatment: none) was 0.0244 and the thermal stability z-score (potassium arsenate) was 0.14.

MLX (UniProt Q9UH92) showed a thermal stability z-score (lipoamide; [1]) of -0.0303, a thermal stability z-score (lipoamide; arsenate co-treatment: none) of -0.272 and a thermal stability z-score (potassium arsenate) of 0.0805.

With MLYCD (UniProt O95822) the thermal stability z-score (lipoamide; [1]) was 0.771, the thermal stability z-score (lipoamide; arsenate co-treatment: none) was 0.713 and the thermal stability z-score (potassium arsenate) was 0.837.

With MMAA (UniProt Q8IVH4) the thermal stability z-score (lipoamide; [1]) was 0.33, the thermal stability z-score (lipoamide; arsenate co-treatment: none) was -0.0208 and the thermal stability z-score (potassium arsenate) was -1.04.

With MMAB (UniProt Q96EY8) the thermal stability z-score (lipoamide; [1]) was -1.28, the thermal stability z-score (lipoamide; arsenate co-treatment: none) was -1.35 and the thermal stability z-score (potassium arsenate) was -0.58.

MMACHC (UniProt Q9Y4U1) was tested, and the thermal stability z-score (lipoamide; [1]) was -0.0163, the thermal stability z-score (lipoamide; arsenate co-treatment: none) was -0.159 and the thermal stability z-score (potassium arsenate) was -0.12.

Target MME (UniProt P08473) has a thermal stability z-score (lipoamide; [1]) of -0.46, a thermal stability z-score (lipoamide; arsenate co-treatment: none) of -1.37 and a thermal stability z-score (potassium arsenate) of 0.585.

With MMGT1 (UniProt Q8N4V1) the thermal stability z-score (lipoamide; [1]) was 0.584, the thermal stability z-score (lipoamide; arsenate co-treatment: none) was 0.397 and the thermal stability z-score (potassium arsenate) was 0.966.

For MMP15 (UniProt P51511), the thermal stability z-score (lipoamide; [1]) was -0.901, the thermal stability z-score (lipoamide; arsenate co-treatment: none) was -0.632 and the thermal stability z-score (potassium arsenate) was -0.00399.

With MMS19 (UniProt Q96T76) the thermal stability z-score (lipoamide; [1]) was -0.784, the thermal stability z-score (lipoamide; arsenate co-treatment: none) was -1.16 and the thermal stability z-score (potassium arsenate) was -0.949.

MMTAG2 (UniProt Q9BU76) was tested, and the thermal stability z-score (lipoamide; [1]) was 2.29, the thermal stability z-score (lipoamide; arsenate co-treatment: none) was 0.684 and the thermal stability z-score (potassium arsenate) was 0.188.

Target MNAT1 (UniProt P51948) has a thermal stability z-score (lipoamide; [1]) of -0.257, a thermal stability z-score (lipoamide; arsenate co-treatment: none) of -0.423 and a thermal stability z-score (potassium arsenate) of 0.102.

Work on MND1 (UniProt Q9BWT6) yielded a thermal stability z-score (lipoamide; [1]) of -0.235, a thermal stability z-score (lipoamide; arsenate co-treatment: none) of -0.0119 and a thermal stability z-score (potassium arsenate) of 0.296.

MOB1B|MOB1A gave a thermal stability z-score (lipoamide; [1]) of 1.02, a thermal stability z-score (lipoamide; arsenate co-treatment: none) of 0.33 and a thermal stability z-score (potassium arsenate) of 0.896.

MOB2 (UniProt Q70IA6) gave a thermal stability z-score (lipoamide; [1]) of -0.235, a thermal stability z-score (lipoamide; arsenate co-treatment: none) of -0.176 and a thermal stability z-score (potassium arsenate) of 0.0529.

Work on MOCOS (UniProt Q96EN8) yielded a thermal stability z-score (lipoamide; [1]) of 0.344, a thermal stability z-score (lipoamide; arsenate co-treatment: none) of 0.221 and a thermal stability z-score (potassium arsenate) of -0.535.

Work on MOCS2 yielded a thermal stability z-score (lipoamide; [1]) of 0.00471, a thermal stability z-score (lipoamide; arsenate co-treatment: none) of 0.303 and a thermal stability z-score (potassium arsenate) of -0.289.

With MOCS3 (UniProt O95396) the thermal stability z-score (lipoamide; [1]) was 0.01, the thermal stability z-score (lipoamide; arsenate co-treatment: none) was -0.0171 and the thermal stability z-score (potassium arsenate) was -0.0988.

In the case of MOGS (UniProt Q13724), the thermal stability z-score (lipoamide; [1]) was -1.24, the thermal stability z-score (lipoamide; arsenate co-treatment: none) was -0.979 and the thermal stability z-score (potassium arsenate) was 0.158.

MON1B (UniProt Q7L1V2) gave a thermal stability z-score (lipoamide; [1]) of 0.955, a thermal stability z-score (lipoamide; arsenate co-treatment: none) of 0.582 and a thermal stability z-score (potassium arsenate) of 0.685.

MON2 (UniProt Q7Z3U7) was tested, and the thermal stability z-score (lipoamide; [1]) was 0.0206, the thermal stability z-score (lipoamide; arsenate co-treatment: none) was 0.307 and the thermal stability z-score (potassium arsenate) was 0.63.

MORC2 (UniProt Q9Y6X9) was tested, and the thermal stability z-score (lipoamide; [1]) was -0.165, the thermal stability z-score (lipoamide; arsenate co-treatment: none) was -0.0529 and the thermal stability z-score (potassium arsenate) was -0.726.

MORC3 (UniProt Q14149) gave a thermal stability z-score (lipoamide; [1]) of -0.165, a thermal stability z-score (lipoamide; arsenate co-treatment: none) of -0.119 and a thermal stability z-score (potassium arsenate) of -0.054.

MORF4L1 (UniProt Q9UBU8) showed a thermal stability z-score (lipoamide; [1]) of -0.486, a thermal stability z-score (lipoamide; arsenate co-treatment: none) of 0.0693 and a thermal stability z-score (potassium arsenate) of 0.343.

MORF4L2 (UniProt Q15014) gave a thermal stability z-score (lipoamide; [1]) of -0.451, a thermal stability z-score (lipoamide; arsenate co-treatment: none) of -0.148 and a thermal stability z-score (potassium arsenate) of -0.58.

Work on MOSPD1 (UniProt Q9UJG1) yielded a thermal stability z-score (lipoamide; [1]) of -0.167, a thermal stability z-score (lipoamide; arsenate co-treatment: none) of -0.25 and a thermal stability z-score (potassium arsenate) of -0.354.

Work on MOSPD2 (UniProt Q8NHP6) yielded a thermal stability z-score (lipoamide; [1]) of -0.58, a thermal stability z-score (lipoamide; arsenate co-treatment: none) of -0.383 and a thermal stability z-score (potassium arsenate) of -0.254.

In the case of MOV10 (UniProt Q9HCE1), the thermal stability z-score (lipoamide; [1]) was -0.0627, the thermal stability z-score (lipoamide; arsenate co-treatment: none) was 0.31 and the thermal stability z-score (potassium arsenate) was -0.16.

Target MP68 (UniProt P56378) has a thermal stability z-score (lipoamide; [1]) of 0.962, a thermal stability z-score (lipoamide; arsenate co-treatment: none) of 0.921 and a thermal stability z-score (potassium arsenate) of 1.15.

MPC2 (UniProt O95563) showed a thermal stability z-score (lipoamide; [1]) of 0.0545, a thermal stability z-score (lipoamide; arsenate co-treatment: none) of -0.501 and a thermal stability z-score (potassium arsenate) of 1.64.

MPDZ (UniProt O75970) was tested, and the thermal stability z-score (lipoamide; [1]) was -0.25, the thermal stability z-score (lipoamide; arsenate co-treatment: none) was -0.0819 and the thermal stability z-score (potassium arsenate) was 0.0169.

Target MPG (UniProt P29372) has a thermal stability z-score (lipoamide; [1]) of 0.128, a thermal stability z-score (lipoamide; arsenate co-treatment: none) of 0.378 and a thermal stability z-score (potassium arsenate) of 0.572.
